Measurements reported in patent US4528020A, “Urease inhibited urea based fertilizer compositions” (Allied Corporation, priority 1983, dated 1985).

Biological target: jack bean urease (Canavalia ensiformis, UniProt P07374)
Assay: Urease inhibition in solution (modified Bremner procedure, purified jack bean urease in aqueous solution)
Format: biochemical
Conditions: commercial purified jack bean urease
Protocol: Efficacy tests were conducted with jack bean urease. The procedure of Bremner (See. L. A. Douglas, J. M. Bremner, Soil Biology Biochem., 3, 859-859 (1970), and references cited therein was modified by replacing the soil as the source of urease with commercial purified jack bean urease. The incubation then proceeds in aqueous solution. The results are set forth in the following Table I.

jack bean urease, sequence (P07374 whole entry, looked up): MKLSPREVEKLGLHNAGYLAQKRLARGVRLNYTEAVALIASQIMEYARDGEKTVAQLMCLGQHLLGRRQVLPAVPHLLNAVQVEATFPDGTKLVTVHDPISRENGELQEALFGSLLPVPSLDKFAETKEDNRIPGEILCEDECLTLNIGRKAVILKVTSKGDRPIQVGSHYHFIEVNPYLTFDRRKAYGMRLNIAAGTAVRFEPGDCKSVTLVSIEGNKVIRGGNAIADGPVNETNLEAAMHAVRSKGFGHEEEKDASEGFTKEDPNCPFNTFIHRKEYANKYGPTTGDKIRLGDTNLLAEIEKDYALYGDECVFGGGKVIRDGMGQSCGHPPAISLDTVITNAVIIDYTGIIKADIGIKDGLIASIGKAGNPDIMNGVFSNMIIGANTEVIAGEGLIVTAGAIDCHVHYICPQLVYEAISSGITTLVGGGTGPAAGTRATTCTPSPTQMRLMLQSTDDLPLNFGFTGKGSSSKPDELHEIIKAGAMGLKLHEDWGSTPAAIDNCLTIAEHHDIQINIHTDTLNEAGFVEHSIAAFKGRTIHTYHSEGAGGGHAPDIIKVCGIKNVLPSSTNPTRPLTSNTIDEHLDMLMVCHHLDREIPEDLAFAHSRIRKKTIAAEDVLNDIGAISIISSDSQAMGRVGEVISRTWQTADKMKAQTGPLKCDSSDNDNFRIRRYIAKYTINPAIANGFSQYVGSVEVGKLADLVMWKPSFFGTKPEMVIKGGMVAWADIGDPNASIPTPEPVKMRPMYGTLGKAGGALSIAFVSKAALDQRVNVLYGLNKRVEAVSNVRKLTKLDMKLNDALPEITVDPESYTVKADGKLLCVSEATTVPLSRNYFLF

With `NP(N)(=O)NC(=O)c1ccc(N2C(=O)C=CC2=O)cc1` [N-(diaminophosphinyl)-4-(1'-maleimido)benzamide] the inhibition at 1 µM (compound at 10^-6 M, read-out: % Inhibition at Specific Concentration 10^-6 M) was 59% and the inhibition at 0.1 µM (compound at 10^-7 M, read-out: % Inhibition at Specific Concentration 10^-7 M) was 8%.
